Laboratory results published in patent US20060089263A1, “2-Propenal and related enal compounds for controlling plant pests and weeds in soil” (priority 2004, published 2006).

Tests used:
Assay type in all cases: in vivo
[1] = tested on: reniform nematode (Rotylenchulus reniformis); experiment: Greenhouse nematicidal experiment, soil infested with reniform nematode; conditions: for response patterns of nematodes to applications (reniform): compared with 2-propenal
Text: (§1) The nematicidal properties of 2-propenal (CH2═CH—CHO; acrolein), 2-butenal (CH3—CH═CH—CHO; crotonaldehyde), and trans 2-pentenal (CH3—CH2—CH═CH—CHO) were studied in greenhouse experiments with soil severely infected with the reniform nematode (Rotylenchulus reniformis). The soil was collected from a cotton field and was a sandy loam with pH 6.2, organic matter content <1.0% and cation exchange capacity <10 meq/100 gms soil. The soil was mixed 50:50 by volume, with washed fine siliceous river sand and the mixture, here-from referred to as soil. The moist soil (50% field capacity) was apportioned in 1 Kg quantities contained in 4L polyethylene bags. The compounds were applied to the soil in the bags, and after thorough mixing the treated soil was transferred to 1 L capacity, 4-inch-diam. plastic (PVC) pots which were then covered with a polyethylene bag (1 mil) held tightly to the outside wall of the pot with a rubber band. The covered pots were placed on a greenhouse table and after 10 days the bags were removed and soil samples for nematode analyses were collected from each pot. The pots were planted with “Young” soybean (5 seed/pot.) Soybean plants were grown for 8 weeks when they were removed, soil samples taken for nematode analysis (salad bowl incubation technique), and data were collected on shoot height, and fresh weights of shoots and roots. The relative health of the root systems was determined using a subjective scale. […] Values between 1 and 5 represented intermediate degrees of damage. The roots were incubated to assess nematode populations in them.
(§2) Emulsifiable concentrates (EC's) were prepared for all three compounds containing 10% (w/w) emulsogen. The EC's were used to make aqueous emulsions containing 2.5% active ingredient; these emulsions were then used to deliver the compounds to soil. Each compound was delivered using the following rates: 0, 25, 50, 75, 100, 125, 150, 175, 200, 225, 250, 275, 300 mgs/kg soil. In every experiment there were 6 replications (pots) per treatment arranged in a randomized complete block design.
(§3) All data were analyzed according to standard procedures for analysis of variance. Fisher's Least Significant Differences (FLSD) were calculated when F values were significant and are included in the graphs. Curvilineal analyses were conducted according to standard procedures with the TableCurve 2D program.

[2] = tested on: microbivorous nematodes; experiment: Greenhouse nematicidal experiment, microbivorous nematodes in soil and roots; conditions: for response patterns of nematodes to applications (microbivorous): compared with 2-propenal
Text: as §1, §2, §3

[3] = tested on: "Young" soybean; experiment: Growth response of soybean plants in treated soil (greenhouse)
Text: as §1, §2, §3

[4] = tested on: tomato plant; experiment: Tomato plant growth study, vigor rating; set-up: key to TOMATO VIGOR 1-5SCALE: 1 = very little vigor, 5 = very vigorous
Text: This example together with the data in Table 1 includes results of a study conducted to test the affects of acrolein on tomato plant growth. The first column in Table 1 includes, from left to right the treatment number, the treatment name, the rate of application, and the unit for that rate. The treatment name includes two separate treatment ingredients for each treatment number. The top name of each treatment name lists the test additive, and the bottom listing of the treatment name lists any additional herbicide applied in that particular treatment number. For example, in treatment number 5, methyl bromide was applied with a sandea herbicide. The rate and the rate unit headings, for this study, lists the amount of application of the treatment ingredients in pounds of active ingredients per acre (lb ai/a). Column 2 of Table 1 lists a vigor rating for each tomato plant on a scale of 1 to 5, wherein a 1 rating indicates a tomato plant with very little vigor, and a 5 rating indicates a very vigorous tomato plant. Column 2 lists vigor scale ratings for each treatment number taken on Aug. 17, 2005, and column 3 lists a vigor rating for each treatment taken on Aug. 25, 2005.

[5] = tested on: yellow nutsedge (Cyperus esculentus); experiment: Greenhouse herbicidal experiment, post-emergence; conditions: applied post-emergence
Procedure: Herbicidal properties of the compounds were studied as described for experiments on nematicidal activities. The soil was from a cotton field with a silt loam soil from a cotton field with similar properties as the one used for the nematode experiments. It was infested with a variety of weeds and was artificially seeded with 5 yellow nutsedge tubercles/pot. Nutsedge plants and other weeds were grown for a month, and the pots were then treated with 2-propenal and covered with polyethylene bags for 10 days, when the bags were removed and weed counts taken at two weeks and one month after treatment. Rates used in these experiments were: 0, 100, 200, 300, 400, 500, 600, 700, and 800 mgs/kg soil.
as §3

[6] = 0-300 mgs/kg soil, pre-plant samples
[7] = 50 mgs/kg soil equivalent to 100 lbs/A, pre-plant samples

2-butenal
response patterns of nematodes to applications (reniform) [1]: very similar to those described for 2-propenal
response patterns of nematodes to applications (microbivorous) [2]: very similar to those described for 2-propenal

CC/C=C/C=O [2-pentenal, trans-2-pentenal]
response patterns of nematodes to applications (reniform) [1]: very similar to those described for 2-propenal
response patterns of nematodes to applications (microbivorous) [2]: very similar to those described for 2-propenal

2-propenal
populations of reniform nematodes in pre-plant samples [1, 6]: reduced exponentially
reduction in populations of reniform nematodes [1, 7]: > 90%
shoot height ([3]; dosages above 50 mgs): gradual decline
shoot weights ([3]; dosages above 50 mgs): gradual decline
root weights ([3]; dosages higher than 175 mgs): declined
shoot height ([3]; dosages ≦50 mgs): Sharp increases
shoot weights ([3]; dosages ≦50 mgs): Sharp increases
root weights ([3]; rates up to 175 mgs): increased gradually
root condition ([3]; subjective scale 1 to 5, rates 25-300 mgs/kg soil): improved by all but the highest dose
populations of microbivorous nematodes in pre-plant samples [2, 6]: reduced exponentially
microbivorous populations at the end of the experiment ([2]; 75 mg rate): stimulated
reduction in populations of microbivorous nematodes [2, 7]: > 90%
microbivorous populations at the end of the experiment ([2]; applications of ≦100 mgs/kg soil, soil and root samples): recovered
TOMATO VIGOR 1-5SCALE ([4]; 17/Aug/05, DRIP 200 lb ai/a, no herbicide): 3.000
TOMATO VIGOR 1-5SCALE ([4]; 17/Aug/05, DRIP 200 lb ai/a, with SANDEA 0.25 lb ai/a): 3.000
TOMATO VIGOR 1-5SCALE ([4]; 17/Aug/05, DRIP 200 lb ai/a, with V-10142 0.25 lb ai/a): 3.000
TOMATO VIGOR 1-5SCALE ([4]; 17/Aug/05, DRIP 400 lb ai/a, no herbicide): 3.000
TOMATO VIGOR 1-5SCALE ([4]; 17/Aug/05, DRIP 400 lb ai/a, with SANDEA 0.25 lb ai/a): 2.750
TOMATO VIGOR 1-5SCALE ([4]; 17/Aug/05, DRIP 400 lb ai/a, with V-10142 0.25 lb ai/a): 3.000
TOMATO VIGOR 1-5SCALE ([4]; 17/Aug/05, DRIP 600 lb ai/a, no herbicide): 1.250
TOMATO VIGOR 1-5SCALE ([4]; 17/Aug/05, DRIP 600 lb ai/a, with SANDEA 0.25 lb ai/a): 1.500
TOMATO VIGOR 1-5SCALE ([4]; 17/Aug/05, DRIP 600 lb ai/a, with V-10142 0.25 lb ai/a): 2.250
TOMATO VIGOR 1-5SCALE ([4]; 17/Aug/05, INJECT 200 lb ai/a, no herbicide, listed as ACROLEIN): 4.250
TOMATO VIGOR 1-5SCALE ([4]; 17/Aug/05, INJECT 200 lb ai/a, no herbicide, listed as acrolein): 4.25
TOMATO VIGOR 1-5SCALE ([4]; 17/Aug/05, INJECT 200 lb ai/a, with SANDEA 0.25 lb ai/a): 4.000
TOMATO VIGOR 1-5SCALE ([4]; 17/Aug/05, INJECT 200 lb ai/a, with V-10142 0.25 lb ai/a): 4.000
TOMATO VIGOR 1-5SCALE ([4]; 17/Aug/05, INJECT 400 lb ai/a, no herbicide, listed as ACROLEIN): 4.000
TOMATO VIGOR 1-5SCALE ([4]; 17/Aug/05, INJECT 400 lb ai/a, no herbicide, listed as acrolein): 4.0
TOMATO VIGOR 1-5SCALE ([4]; 17/Aug/05, INJECT 400 lb ai/a, with SANDEA 0.25 lb ai/a): 3.000
TOMATO VIGOR 1-5SCALE ([4]; 17/Aug/05, INJECT 400 lb ai/a, with V-10142 0.25 lb ai/a): 4.000
TOMATO VIGOR 1-5SCALE ([4]; 17/Aug/05, INJECT 600 lb ai/a, no herbicide): 3.250
TOMATO VIGOR 1-5SCALE ([4]; 17/Aug/05, INJECT 600 lb ai/a, with SANDEA 0.25 lb ai/a): 3.250
TOMATO VIGOR 1-5SCALE ([4]; 17/Aug/05, INJECT 600 lb ai/a, with V-10142 0.25 lb ai/a): 3.250
TOMATO VIGOR 1-5SCALE ([4]; 25/Aug/05, DRIP 200 lb ai/a, no herbicide): 4.000
TOMATO VIGOR 1-5SCALE ([4]; 25/Aug/05, DRIP 200 lb ai/a, with SANDEA 0.25 lb ai/a): 3.750
TOMATO VIGOR 1-5SCALE ([4]; 25/Aug/05, DRIP 200 lb ai/a, with V-10142 0.25 lb ai/a): 3.850
TOMATO VIGOR 1-5SCALE ([4]; 25/Aug/05, DRIP 400 lb ai/a, no herbicide): 3.250
TOMATO VIGOR 1-5SCALE ([4]; 25/Aug/05, DRIP 400 lb ai/a, with SANDEA 0.25 lb ai/a): 3.500
TOMATO VIGOR 1-5SCALE ([4]; 25/Aug/05, DRIP 400 lb ai/a, with V-10142 0.25 lb ai/a): 3.250
TOMATO VIGOR 1-5SCALE ([4]; 25/Aug/05, DRIP 600 lb ai/a, no herbicide): 2.500
TOMATO VIGOR 1-5SCALE ([4]; 25/Aug/05, DRIP 600 lb ai/a, with SANDEA 0.25 lb ai/a): 2.500
TOMATO VIGOR 1-5SCALE ([4]; 25/Aug/05, DRIP 600 lb ai/a, with V-10142 0.25 lb ai/a): 2.900
TOMATO VIGOR 1-5SCALE ([4]; 25/Aug/05, INJECT 200 lb ai/a, no herbicide, listed as ACROLEIN): 4.750
TOMATO VIGOR 1-5SCALE ([4]; 25/Aug/05, INJECT 200 lb ai/a, no herbicide, listed as acrolein): 4.75
TOMATO VIGOR 1-5SCALE ([4]; 25/Aug/05, INJECT 200 lb ai/a, with SANDEA 0.25 lb ai/a): 4.750
TOMATO VIGOR 1-5SCALE ([4]; 25/Aug/05, INJECT 200 lb ai/a, with V-10142 0.25 lb ai/a): 4.750
TOMATO VIGOR 1-5SCALE ([4]; 25/Aug/05, INJECT 400 lb ai/a, no herbicide, listed as ACROLEIN): 5.000
TOMATO VIGOR 1-5SCALE ([4]; 25/Aug/05, INJECT 400 lb ai/a, no herbicide, listed as acrolein): 5.0
TOMATO VIGOR 1-5SCALE ([4]; 25/Aug/05, INJECT 400 lb ai/a, with SANDEA 0.25 lb ai/a): 4.250
TOMATO VIGOR 1-5SCALE ([4]; 25/Aug/05, INJECT 400 lb ai/a, with V-10142 0.25 lb ai/a): 4.650
TOMATO VIGOR 1-5SCALE ([4]; 25/Aug/05, INJECT 600 lb ai/a, no herbicide): 4.250
TOMATO VIGOR 1-5SCALE ([4]; 25/Aug/05, INJECT 600 lb ai/a, with SANDEA 0.25 lb ai/a): 4.000
TOMATO VIGOR 1-5SCALE ([4]; 25/Aug/05, INJECT 600 lb ai/a, with V-10142 0.25 lb ai/a): 3.750
doses resulting in practical elimination of the weed [5]: ≥ 200 mgs/kgs soil

CBr [METHYL BROMIDE 1, methyl bromide, reference compound]
TOMATO VIGOR 1-5SCALE ([4]; 17/Aug/05, 350 lb ai/a, no herbicide): 2.500
TOMATO VIGOR 1-5SCALE ([4]; 17/Aug/05, 350 lb ai/a, no herbicide, listed as METHYL BROMIDE 2): 2.250
TOMATO VIGOR 1-5SCALE ([4]; 17/Aug/05, 350 lb ai/a, with SANDEA 0.25 lb ai/a): 2.250
TOMATO VIGOR 1-5SCALE ([4]; 17/Aug/05, 350 lb ai/a, with SANDEA 0.25 lb ai/a, listed as METHYL BROMIDE 2): 2.500
TOMATO VIGOR 1-5SCALE ([4]; 17/Aug/05, 350 lb ai/a, with V-10142 0.25 lb ai/a): 2.000
TOMATO VIGOR 1-5SCALE ([4]; 17/Aug/05, 350 lb ai/a, with V-10142 0.25 lb ai/a, listed as METHYL BROMIDE 2): 2.500
TOMATO VIGOR 1-5SCALE ([4]; 25/Aug/05, 350 lb ai/a, no herbicide): 2.500
TOMATO VIGOR 1-5SCALE ([4]; 25/Aug/05, 350 lb ai/a, with SANDEA 0.25 lb ai/a): 2.750
TOMATO VIGOR 1-5SCALE ([4]; 25/Aug/05, 350 lb ai/a, with SANDEA 0.25 lb ai/a, listed as METHYL BROMIDE 2): 2.500
TOMATO VIGOR 1-5SCALE ([4]; 25/Aug/05, 350 lb ai/a, with V-10142 0.25 lb ai/a): 2.650
TOMATO VIGOR 1-5SCALE ([4]; 25/Aug/05, 350 lb ai/a, with V-10142 0.25 lb ai/a, listed as METHYL BROMIDE 2): 2.500
change in vigor scale rating over the term of the test ([4]; 350 lb ai/a, no additional herbicide): no change
